pIC50: −log10 of the molar value.

One may read the pIC50 as the IC50 on a negative log10 scale, so that one unit is a factor of ten.

The target in assay [1] is T1, human GST-CLK1 (Homo sapiens, UniProt P49759).
T1 construct: purified human GST-CLK1 (129-end, SignalChem) enzyme; purchased SignalChem
As to the kind of experiment: GST-CLK1 enzyme inhibition, ADP-Glo kinase assay. It counts as biochemical. As to conditions: ATP 10 μM, GST-CLK1 129-end. The procedure, abridged: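 ADP-Glo luminescence read-out, relative to untreated solvent control, gave IC50 (nM) from triplicate data sets. Reactions ran an hour at 25° C with 3 ng GST-CLK1 (residues 129-end), 10 μM ATP and specific substrate in Tris-HCl pH 7.4 buffer with MgCl2, BSA and DTT.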
In general terms: ADP-Glo turns the ADP formed in a reaction into a luminescent signal.

Assay [2] addresses T2, TTK (Homo sapiens, UniProt P33981).
T2 sequence (P33981 1-857): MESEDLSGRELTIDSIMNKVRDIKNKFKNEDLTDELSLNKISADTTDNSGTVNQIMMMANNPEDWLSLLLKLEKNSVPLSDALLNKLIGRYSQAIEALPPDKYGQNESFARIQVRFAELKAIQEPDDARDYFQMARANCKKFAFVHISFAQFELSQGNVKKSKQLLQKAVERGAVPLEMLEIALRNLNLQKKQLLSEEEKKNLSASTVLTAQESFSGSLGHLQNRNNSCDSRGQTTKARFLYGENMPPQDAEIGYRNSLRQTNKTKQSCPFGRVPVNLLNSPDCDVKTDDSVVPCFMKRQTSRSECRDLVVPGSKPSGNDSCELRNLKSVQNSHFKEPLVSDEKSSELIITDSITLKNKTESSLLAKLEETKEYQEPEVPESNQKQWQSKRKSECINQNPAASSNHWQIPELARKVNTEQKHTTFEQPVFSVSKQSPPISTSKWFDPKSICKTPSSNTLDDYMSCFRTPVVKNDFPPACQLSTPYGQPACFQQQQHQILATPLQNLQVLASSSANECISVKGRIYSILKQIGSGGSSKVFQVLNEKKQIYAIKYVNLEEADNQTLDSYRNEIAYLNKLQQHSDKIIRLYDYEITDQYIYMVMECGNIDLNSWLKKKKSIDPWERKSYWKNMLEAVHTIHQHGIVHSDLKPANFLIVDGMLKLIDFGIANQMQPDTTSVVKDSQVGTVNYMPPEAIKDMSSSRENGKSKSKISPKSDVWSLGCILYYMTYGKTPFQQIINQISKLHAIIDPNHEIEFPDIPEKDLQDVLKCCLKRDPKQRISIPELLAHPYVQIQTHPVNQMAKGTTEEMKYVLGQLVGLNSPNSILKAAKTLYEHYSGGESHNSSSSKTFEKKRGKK
As to the kind of experiment: TTK enzyme inhibition, ADP-Glo kinase assay. Further details: purchased SignalChem T20-10G. It counts as biochemical. As to conditions: ATP 5 μM. The procedure, abridged: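 Purified human TTK (7.5 ng) was reacted with 5 μM ATP and 0.2 μg MBP substrate for 4 h at 25 °C in 40 mM Tris-HCl pH 7.4, 20 mM MgCl2, 0.1 mg/mL BSA, 50 μM DTT. ADP formation was read by ADP-Glo luminescence, and IC50 was taken relative to solvent control.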

In assay [3] the test system is IL-6. As to the kind of experiment: Inhibition of LPS-induced IL-6 secretion of THP-1 monocytes (ELISA). It counts as cell-based, human. As to conditions: Homo sapiens, THP-1; compound 0.5 μM, LPS 500 ng/mL, 24 hours; read-out: THP1/IL6 (% inhib). The procedure, abridged: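 THP-1 monocytes grown 16 h at 37 °C, pretreated 1 h with compound at final 0.5 μM, then stimulated with LPS at final 500 ng/mL for 24 h. IL-6 and TNF-α in culture supernatant measured by ELISA (OD 450 nm).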

T1 sequence (P49759 129-484 limits assumed): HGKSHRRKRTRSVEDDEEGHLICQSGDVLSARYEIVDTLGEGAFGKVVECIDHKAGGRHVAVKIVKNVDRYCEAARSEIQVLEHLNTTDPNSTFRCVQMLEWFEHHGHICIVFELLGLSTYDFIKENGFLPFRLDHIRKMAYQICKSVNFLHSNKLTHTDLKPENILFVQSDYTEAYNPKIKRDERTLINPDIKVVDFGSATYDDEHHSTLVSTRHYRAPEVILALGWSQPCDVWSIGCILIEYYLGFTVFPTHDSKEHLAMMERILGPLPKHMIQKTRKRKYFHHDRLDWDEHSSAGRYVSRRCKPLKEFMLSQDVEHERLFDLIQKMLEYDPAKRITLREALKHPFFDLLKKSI

In the case of `COc1cc(S(=O)(=O)N2CCC(N3CCOCC3)CC2)ccc1Nc1nc(C2CC2)c2c(C(F)(F)F)c[nH]c2n1` [Example 226], the pIC50 is 6.00 to 6.52 in assay [1] and over 7.00 in assay [2].

For `O=C(c1ccc(Nc2nc(NC3CC3)c3c(C(F)(F)F)c[nH]c3n2)c2c1OCCO2)N1CCN(C2COC2)CC1` [Example 405, (8-((4-(cyclo-propylamino)-5-(trifluoromethyl)-7H-pyrrolo[2,3-d]pyrimidin-2-yl)amino)-2,3-dihydrobenzo[b] [1,4]dioxin-5-yl) (4-(oxetan-3-yl)piperazin-1-yl)methanone], the pIC50 in assay [1] was over 7.00.

Regarding `CCNc1nc(Nc2ccc(S(=O)(=O)N3CCC(N4CCOCC4)CC3)cc2OC)nc2[nH]cc(C(F)(F)F)c12` [Example 158, N^4-ethyl-N^2-(2-methoxy-4-((4-morpholinopiperidin-1-yl)sulfonyl)phenyl)-5-(trifluoromethyl)-7H-pyrrolo[2,3-d]pyrimidine-2,4-diamine 2,2,2-trifluoroacetate], the pIC50 in assay [1] and in assay [2] was over 7.00 throughout.

`CNc1nc(Nc2ccc(P3(=O)CCN(C4CC4)CC3)cc2OC)nc2[nH]cc(C(F)(F)F)c12` [Example 411, 1-cyclopropyl-4-(3-methoxy-4-((4-(methylamino)-5-(trifluoromethyl)-7H-pyrrolo[2,3-d]pyrimidin-2-yl)amino)phenyl)-1,4-azaphosphinane-4-oxide] showed a pIC50 in assay [1] of over 7.00.

Take `COc1cc(P2(=O)CCN(C3CC3)CC2)ccc1Nc1nc(NC2CCCC2)c2c(C(F)(F)F)c[nH]c2n1` [Example 413]: the pIC50 in assay [1] is 6.00 to 6.52; in assay [2] it was over 7.00.

As to `N#Cc1c[nH]c2nc(Nc3ccc(C(=O)N4CCOCC4)c4c3OCCO4)nc(NCC3CCCC3)c12` [Example 133, 4-((cyclopentylmethyl)amino)-2-((8-(morpholine-4-carbonyl)-2,3-dihydrobenzo[b][1,4]dioxin-5-yl)amino)-7H-pyrrolo[2,3-d]pyrimidine-5-carbonitrile], the pIC50 in assay [1] is 6.00 to 6.52; in assay [2], over 7.00.

The compound `CCNc1nc(Nc2ccc(C(=O)N3CCN(C4COC4)CC3)c3c2OCCO3)nc2[nH]cc(C(F)(F)F)c12` [Example 400, (8-((4-(ethylamino)-5-(trifluoromethyl)-7H-pyrrolo[2,3-d]pyrimidin-2-yl)amino)-2,3-dihydrobenzo[b] [1,4]dioxin-5-yl) (4-(oxetan-3-yl)piperazin-1-yl)methanone] had a pIC50 in assay [1] of over 7.00. Moreover, in assay [3], the inhibition at 0.5 µM is 24.7%.

Regarding `COCCNc1nc(Nc2ccc(P3(=O)CCN(C4CCOCC4)CC3)cc2OC)nc2[nH]cc(C(F)(F)F)c12` [Example 444, 4-(3-methoxy-4-((4-((2-methoxyethyl)amino)-5-(trifluoromethyl)-7H-pyrrolo[2,3-d]pyrimidin-2-yl)amino)phenyl)-1-(tetrahydro-2H-pyran-4-yl)-1,4-azaphosphinane 4-oxide], the pIC50 in assay [1] is over 7.00. Further, the inhibition at 0.5 µM in assay [3] is 20%.

In assay [2], `CCCNc1nc(Nc2ccc(S(=O)(=O)N3CCC(N4CCOCC4)CC3)cc2OC)nc2[nH]cc(C(F)(F)F)c12` [Example 161, N^2-(2-methoxy-4-((4-morpholinopiperidin-1-yl)sulfonyl)phenyl)-N^4-propyl-5-(trifluoromethyl)-7H-pyrrolo[2,3-d]pyrimidine-2,4-diamine] gave a pIC50 of 6.52 to 7.00.

As to `COc1cc(S(=O)(=O)N2CCOCC2)ccc1Nc1nc(C2CC2)c2c(C#N)c[nH]c2n1` [Example 223, 4-cyclopropyl-2-((2-methoxy-4-(morpholinosulfonyl)phenyl)amino)-7H-pyrrolo[2,3-d]pyrimidine-5-carbonitrile], the negative-log IC50 (pIC50) in assay [1] was 6.00 to 6.52; in assay [2] it was 6.52 to 7.00.

Turning to `CCN1CCP(=O)(c2ccc(Nc3nc(C4CC4)c4c(C#N)c[nH]c4n3)c(OC)c2)CC1` [Example 261], the pIC50 in assay [1] and in assay [2] was over 7.00 each time.

As to `O=C(c1ccc(Nc2nc(NC3CCCCC3)c3c(C(F)(F)F)c[nH]c3n2)c2c1OCCO2)N1CCN(C2COC2)CC1` [Example 415, (8-((4-(cyclo-hexylamino)-5-(trifluoromethyl)-7H-pyrrolo[2,3-d]pyrimidin-2-yl)amino)-2,3-dihydrobenzo[b] [1,4]dioxin-5-yl) (4-(oxetan-3-yl)piperazin-1-yl)methanone], the pIC50 is 6.00 to 6.52 in assay [1] and over 7.00 in assay [2].

As for `COc1cc(S(=O)(=O)N2CCC(N3CCOCC3)CC2)ccc1Nc1nc(C2CC2)c2c(C#N)c[nH]c2n1` [Example 224, 4-cyclopropyl-2-((2-methoxy-4-((4-morpholinopiperidin-1-yl)sulfonyl)phenyl)amino)-7H-pyrrolo[2,3-d]pyrimidine-5-carbonitrile], the pIC50 in assay [1] is 6.52 to 7.00; in assay [2] it was over 7.00.

As for `CNc1nc(Nc2cc(F)c(S(=O)(=O)N3CCC(N4CCOCC4)CC3)cc2OC)nc2[nH]cc(C(F)(F)F)c12` [Example 231, N^2-(5-fluoro-2-methoxy-4-((4-morpholinopiperidin-1-yl)sulfonyl)phenyl)-N^4-methyl-5-(trifluoromethyl)-7H-pyrrolo[2,3-d]pyrimidine-2,4-diamine], the pIC50 in assay [1] was over 7.00; in assay [2], 6.52 to 7.00.

Take `CCNc1nc(Nc2cc(F)c(S(=O)(=O)N3CCC(N4CCOCC4)CC3)cc2OC)nc2[nH]cc(C(F)(F)F)c12` [Example 232, N^4-ethyl-N^2-(5-fluoro-2-methoxy-4-((4-morpholinopiperidin-1-yl)sulfonyl)phenyl)-5-(trifluoromethyl)-7H-pyrrolo[2,3-d]pyrimidine-2,4-diamine]: the values for the pIC50 in assay [1] and in assay [2] were 6.52 to 7.00 and 6.00 to 6.52, respectively.

As for `CNc1nc(Nc2ccc(C(=O)N3CCC(N4CCOCC4)CC3)c3c2OCCO3)nc2[nH]cc(C(F)(F)F)c12` [Example 238, (8-((4-(methylamino)-5-(trifluoromethyl)-7H-pyrrolo[2,3-d]pyrimidin-2-yl)amino)-2,3-dihydrobenzo[b][1,4]dioxin-5-yl)(4-morpholinopiperidin-1-yl)methanone], in assay [1], the pIC50 is over 7.00.

In the case of `N#Cc1c[nH]c2nc(Nc3ccc(C(=O)N4CCC(N5CCOCC5)CC4)c4c3OCCO4)nc(C3CC3)c12` [Example 221, 4-cyclopropyl-2-((8-(4-morpholinopiperidine-1-carbonyl)-2,3-dihydrobenzo[b][1,4]dioxin-5-yl)amino)-7H-pyrrolo[2,3-d]pyrimidine-5-carbonitrile], the pIC50 in assay [1] and in assay [2] was over 7.00 each time.

Consider `CCCNc1nc(Nc2ccc(C(=O)N3CCC(N4CCOCC4)CC3)c3c2OCCO3)nc2[nH]cc(C#N)c12` [Example 138, 2-((8-(4-morpholinopiperidine-1-carbonyl)-2,3-dihydrobenzo[b][1,4]dioxin-5-yl)amino)-4-(propylamino)-7H-pyrrolo[2,3-d]pyrimidine-5-carbonitrile], for which the pIC50 in assay [1] and in assay [2] was over 7.00 in each case.

Consider `O=C(c1ccc(Nc2nc(C3CC3)c3c(C(F)(F)F)c[nH]c3n2)c2c1OCCO2)N1CCC(N2CCOCC2)CC1` [Example 228, (8-((4-cyclopropyl-5-(trifluoromethyl)-7H-pyrrolo[2,3-d]pyrimidin-2-yl)amino)-2,3-dihydrobenzo[b][1,4]dioxin-5-yl)(4-morpholinopiperidin-1-yl)methanone], for which the pIC50 in assay [1] and in assay [2] was over 7.00 throughout.

The values are drawn from patent publication US20230066011A1, “PYRROLOPYRIMIDINE DERIVATIVE, AND PHARMACEUTICAL COMPOSITION FOR PREVENTING OR TREATING PROTEIN KINASE-RELATED DISEASE COMPRISING SAME AS ACTIVE INGREDIENT” (VORONOI CO., LTD., priority 2019, published 2023).
